The test deals with 935938-334-R-J1-PDC complex spheroid viability. Put plainly: Anticancer human tumor 935938-334-R-J1-PDC patient-derived small intestine adenocarcinoma cell line growth inhibition [POLQ]. To be noted: for viability, T/C: stronger effect = lower value. The procedure: Multicellular complex tumor spheroid response to Polymerase (POL) inhibitors (novobiocin, ART-558, RP6685) in combination with a variety of drugs and investigational agents in selected tumor cell lines
The POL inhibitors (novobiocin, ART-558, and RP6685) were evaluated both individually and in combination with standard of care and investigational anticancer small molecules within a complex spheroid model of solid tumors. . Complex spheroids include a stromal component modeled by human endothelial cells (HUVEC) and fibroblasts modeled by human mesenchymal stem cells (MSCs). The concentration ranges selected for each drug and investigational agent were based upon clinically achievable concentrations if the clinical Cmax of the agent was known.
Compounds. The drugs and investigational agents: novobiocin (NSC847541), ART-558 (NSC835418), RP-6685 (NSC848927), peposertib (NSC802822), ceralasertib (NSC780249), elimusertib (NSC800525), camonsertib (NSC841442), AZD-1390 (NSC803789), olaparib (NSC753686), talazoparib (NSC767125), rucaparib (NSC756644), sotorasib (NSC818433), MRTX-1133 (NSC836407), SN-38 (NSC673596), topotecan (NSC609699), epotoside (NSC141540), doxorubicin (NSC123127), gemcitabine (NSC613327), 5-fluorouracil (NSC19893), paclitaxel (NSC125973), vemurafenib (NSC761431), MSA-2 (NSC828583), SN-011 (NSC837082), adavosertib (NSC754352), prexasertib (NSC758257), carboplatin (NSC241240) and oxaliplatin (NSC266046), were obtained from the National Cancer Institute (NCI) Developmental Therapeutics Program Chemical Repository (21). The FDA-approved anticancer drug set is available from the Developmental Therapeutics Program at https://dtp.cancer.gov/organization/dscb/obtaining/. […] The stock solutions were prepared in dimethyl sulfoxide (DMSO, Sigma-Aldrich, St. Louis, MO, cat. D2650), except for the platinum compounds which were prepared in saline (Quality Biological, Gaithersburg, MD, cat. 114-055-101), at 800-fold the tested concentration and stored at -70 degrees C prior to their use. All drugs and investigational agents were tested over a range starting from a high concentration at or near the clinical Cmax and decreasing in half-log increments. If the clinical Cmax for an agent had not been determined, the highest concentration tested was 10 microM, except for SN-38, which was tested at a high concentration of 1 microM.
Cell Culture. All cells were maintained in an incubator at 37 degrees C and 5% CO2 with 95% humidity. The PDC lines were cultured according to standard operating procedures established by the NCI PDMR (https://pdmr.cancer.gov). Table 3 of the manuscript, lists the cell lines along with the number of the three cell types plated to form the mct-spheroids and media for tumor cell growth. After thawing, all PDC lines, except 997537-175-T-J1-PDC and 415267-285-R-J2-PDC, were cultured in Matrigel-coated flasks prepared with a working solution of 1X Ham's F-12 nutrient mix, without supplementation (Thermo Fisher Scientific, cat. 11765054), 100 U/mL penicillin-streptomycin (Thermo Fisher Scientific, cat. 15140122), and 2.5% Matrigel (Corning Inc., Corning, NY, cat. 354248) for the first three passages. The two PDC lines 997537-175-T-J1-PDC and 415267-285-R-J2-PDC were cultured on uncoated flasks. The 857933-349-R-J2-PDC line was cultured in 6C/Colon 1B media containing advanced DMEM/F-12 (Thermo Fisher Scientific, cat. 12634028), 10 mM HEPES (Thermo Fisher Scientific, cat. 15630080), 1X GlutaMAX supplement (Thermo Fisher Scientific, cat. 35050061), 0.1 mg/mL primocin (InvivoGen, San Diego, CA, cat. ant-pm-2), 10% defined fetal bovine serum, heat inactivated (HyClone Laboratories Inc., Logan, UT, cat. SH30070.03HI), 50% L-WRN conditioned media (ATCC, cat. CRL-3276), 1.25 mM N-Acetyl-L-cysteine (Sigma-Aldrich, cat. A9165), 10 mM nicotinamide (Sigma-Aldrich, cat. N0636), 1X B-27 supplement (Thermo Fisher Scientific, cat. 17504044), 1X N-2 supplement (Thermo Fisher Scientific, cat. […]

Several values for one entry are separate records, joined by “and”; a condition that tells them apart may be missing. Equal entries are not always repeated.

As usually defined, the IC50 is the concentration that inhibits the measured activity by half. The viability, T/C is the result in the treated group divided by that in the control group, in per cent.
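Also: spheroids exposed to drugs for seven days before viability read.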
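For viability, T/C in this document: 100% = DMSO vehicle control wells.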

For `COc1ccc([C@@H](O)c2cc(-c3ncnc4cc(N5CCOCC5)ccc34)c(F)cc2Cl)nn1` + Nc1ccc(C#CCN(C(=O)Cc2ncc(C(F)(F)F)cc2C(F)(F)F)c2ccc(F)cc2)nn1, the half-maximal inhibitory concentration (IC50) by setting is: (curve of first compound, second compound 0.0316 µM) 6570 nM; (curve of first compound, second compound 0.1 µM) 5840 nM; (curve of first compound, second compound 0.316 µM) 5430 nM; (curve of first compound, second compound 1 µM) 5240 nM; (curve of first compound, second compound 3.16 µM) 3680 nM; (curve of first compound, second compound 10 µM) 2040 nM. Further, the viability, T/C was 87.1% (second compound 0.0316 µM, first compound 0.0316 µM); 81.3% (second compound 0.0316 µM, first compound 0.1 µM); 98.4% (second compound 0.0316 µM, first compound 0.316 µM); 102% (second compound 0.0316 µM, first compound 1 µM); 59.2% (second compound 0.0316 µM, first compound 3.16 µM); 44.7% (second compound 0.0316 µM, first compound 10 µM). Further, the viability, T/C is, setting by setting: (second compound 0.1 µM, first compound 0.0316 µM) 120%; (second compound 0.1 µM, first compound 0.1 µM) 98.5%; (second compound 0.1 µM, first compound 0.316 µM) 105%; (second compound 0.1 µM, first compound 1 µM) 109%; (second compound 0.1 µM, first compound 3.16 µM) 73.7%; (second compound 0.1 µM, first compound 10 µM) 29.4%. Moreover, the viability, T/C reads like this: (second compound 0.316 µM, first compound 0.0316 µM) 106%; (second compound 0.316 µM, first compound 0.1 µM) 106%; (second compound 0.316 µM, first compound 0.316 µM) 110%; (second compound 0.316 µM, first compound 1 µM) 84.9%; (second compound 0.316 µM, first compound 3.16 µM) 74.8%; (second compound 0.316 µM, first compound 10 µM) 25%. The viability, T/C runs as follows: (second compound 1 µM, first compound 0.0316 µM) 118%; (second compound 1 µM, first compound 0.1 µM) 96.6%; (second compound 1 µM, first compound 0.316 µM) 106%; (second compound 1 µM, first compound 1 µM) 82.3%; (second compound 1 µM, first compound 3.16 µM) 70.1%; (second compound 1 µM, first compound 10 µM) 28.5%. Also, the viability, T/C reads like this: (second compound 3.16 µM, first compound 0.0316 µM) 109%; (second compound 3.16 µM, first compound 0.1 µM) 98.9%; (second compound 3.16 µM, first compound 0.316 µM) 96.5%; (second compound 3.16 µM, first compound 1 µM) 80.5%; (second compound 3.16 µM, first compound 3.16 µM) 52.1%; (second compound 3.16 µM, first compound 10 µM) 29.6%. Moreover, the viability, T/C is, setting by setting: (second compound 10 µM, first compound 0.0316 µM) 81.1%; (second compound 10 µM, first compound 0.1 µM) 83.6%; (second compound 10 µM, first compound 0.316 µM) 118%; (second compound 10 µM, first compound 1 µM) 60.5%; (second compound 10 µM, first compound 3.16 µM) 54%; (second compound 10 µM, first compound 10 µM) 33.1%.
Regarding `Nc1ccn(C2OC(CO)C(O)C2(F)F)c(=O)n1` (configuration not stated), the viability, T/C runs as follows: (compound 0.0316 µM) 39.8% and 30.9% and 30.5%; (compound 0.1 µM) 26.2% and 19.4% and 23.6%; (compound 0.316 µM) 23.7% and 17.5% and 14.9%; (compound 1 µM) 22.1% and 18.1% and 16%; (compound 3.16 µM) 20.7% (2×) and 16.5%; (compound 10 µM) 18.4% and 16% and 17.2%. For the same compound, the IC50 (curve of compound) is less than 31.6 nM.
For `COc1cccc2c1C(=O)c1c(O)c3c(c(O)c1C2=O)CC(O)(C(=O)CO)CC3OC1CC(N)C(O)C(C)O1` (configuration not stated), the viability, T/C (compound 0.0316 µM) was 68.8% and 69.1% and 56.6%; the viability, T/C (compound 0.1 µM) is 39.8% and 38.5% and 102%; the viability, T/C (compound 0.316 µM) is 25.9% and 33.7% and 25.3%; the viability, T/C (compound 1 µM) was 23.2% and 22.7% and 24.1%; the viability, T/C (compound 3.16 µM) is 7.61% and 6.31% and 3.97%; the viability, T/C (compound 10 µM) is 6.95% and 3.94% and 4.69%. The half-maximal inhibitory concentration (IC50) (curve of compound) is 70.7 nM and 79.2 nM and 187 nM.
As for `C#Cc1c(F)ccc2cc(O)cc(-c3ncc4c(N5CC6CCC(C5)N6)nc(OCC56CCCN5CC(F)C6)nc4c3F)c12` (configuration not stated), the viability, T/C was 94.5% and 100% and 95% (compound 0.0316 µM); 109% and 87.3% and 101% (compound 0.1 µM); 78.4% and 86.1% and 85.4% (compound 0.316 µM); 59.5% and 69% and 70.2% (compound 1 µM); 64.2% and 46.4% and 44% (compound 3.16 µM); 28.9% and 34.7% and 36.1% (compound 10 µM). Also, the half-inhibitory concentration (IC50) (curve of compound) was 3790 nM and 2850 nM and 2510 nM.
Regarding `CC1COCCN1c1cc(C2(S(C)(=N)=O)CC2)nc(-c2ccnc3[nH]ccc23)n1` (configuration not stated), the viability, T/C was 98.1% and 87.1% and 102% (compound 0.0316 µM); 112% and 108% and 84.7% (compound 0.1 µM); 80.3% and 107% and 90.2% (compound 0.316 µM); 85.9% and 79.2% and 65.2% (compound 1 µM); 46.4% and 41.8% and 49.7% (compound 3.16 µM); 24.2% and 18.7% and 17.1% (compound 10 µM). For the same compound, the IC50 (curve of compound) is 3130 nM and 2420 nM and 2820 nM.
Take `CC(=O)O[C@H]1C(=O)[C@@]2(C)[C@H]([C@H](OC(=O)c3ccccc3)[C@]3(O)C[C@H](OC(=O)[C@H](O)[C@@H](NC(=O)c4ccccc4)c4ccccc4)C(C)=C1C3(C)C)[C@]1(OC(C)=O)CO[C@@H]1C[C@@H]2O`: the viability, T/C by setting is: (compound 0.00949 µM) 35.5% and 53.2% and 37.8%; (compound 0.03 µM) 18.7% and 20.8% and 19.2%; (compound 0.0949 µM) 15.8% and 15.7% and 16%; (compound 0.3 µM) 12.4% and 16.4% and 17%; (compound 0.949 µM) 14.9% and 15.7% and 13.9%; (compound 3 µM) 17.9% and 19.1% and 19.5%. Also, for the setting “curve of compound”, the IC50 was < 9.49 nM and 10.6 nM.

The values above are taken from PubChem BioAssay AID1963829 (Molecular Pharmacology Branch, DTP, NCI, 2024).
